In ChEMBL document CHEMBL1201862, “PubChem BioAssay data set” (2004):
Structures can show the parent of a compound that is named as a salt.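 96-well plates; 48 h exposure; 5 concentrations. Endpoints by linear interpolation between flanking doses. Not reached: highest tested concentration assigned. Abbreviation: GI50, concentration required for 50% inhibition of growth.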 Activity calls are given as the source filed them. Cut-off read from the data, not from the text of the source: active = GI50 up to about 1.1 µM and inactive = higher.

Legend:
Experiment in all cases: DTP human tumour cell line panel, 48 h
SF-268 = tested on: SF-268
KM-20L2 = tested on: KM-20L2
OVCAR-4 = tested on: OVCAR-4
SNB-19 = tested on: SNB-19
CAKI-1 = tested on: CAKI-1
COLO 205 = tested on: COLO 205
OVCAR-3 = tested on: OVCAR-3
OVCAR-5 = tested on: OVCAR-5
NCI/ADR-RES = tested on: NCI/ADR-RES
CCRF-CEM = tested on: CCRF-CEM
RPMI-8226 = tested on: RPMI-8226
HL-60 = tested on: HL-60
SF-295 = tested on: SF-295
HOP-18 = tested on: HOP-18
DLD-1 = tested on: DLD-1
HOP-92 = tested on: HOP-92
NCI-H23 = tested on: NCI-H23
HCT-116 = tested on: HCT-116
M19-MEL = tested on: M19-MEL
HCC 2998 = tested on: HCC 2998
Malme-3M = tested on: Malme-3M
MOLT-4 = tested on: MOLT-4
A498 = tested on: A498
EKVX = tested on: EKVX
SK-MEL-5 = tested on: SK-MEL-5
U-251 = tested on: U-251
SNB-75 = tested on: SNB-75
UACC-257 = tested on: UACC-257
HCT-15 = tested on: HCT-15
SK-MEL-2 = tested on: SK-MEL-2
K562 = tested on: K562
RXF 393 = tested on: RXF 393
HOP-62 = tested on: HOP-62
LOX IMVI = tested on: LOX IMVI
SK-MEL-28 = tested on: SK-MEL-28
KM12 = tested on: KM12
SK-OV-3 = tested on: SK-OV-3
IGROV-1 = tested on: IGROV-1
SNB-78 = tested on: SNB-78
NCI-H460 = tested on: NCI-H460
XF498 = tested on: XF498
SF-539 = tested on: SF-539
NCI-H226 = tested on: NCI-H226
NCI-H522 = tested on: NCI-H522
MCF7 = tested on: MCF7
A549 = tested on: A549
SN12C = tested on: SN12C
SW-620 = tested on: SW-620
HT-29 = tested on: HT-29
DMS-273 = tested on: DMS-273
UACC-62 = tested on: UACC-62

Measured: GI50

CCCCc1oc2ccccc2c1C(=O)c1cc(I)c(OCCN(CC)CC)c(I)c1 [AMIODARONE HYDROCHLORIDE]
4.12 µM: HCT-15
inactive: SF-268 11 µM | KM-20L2 3.64 µM | OVCAR-4 6.5 µM | SNB-19 6.21 µM | CAKI-1 6.14 µM | COLO 205 4.21 µM | OVCAR-3 6.22 µM | OVCAR-5 5.21 µM | NCI/ADR-RES 5.86 µM | CCRF-CEM 4.54 µM | RPMI-8226 3.71 µM | HL-60 2.79 µM | SF-295 4.63 µM | DLD-1 6.73 µM | HOP-92 3.86 µM | NCI-H23 6.15 µM | HCT-116 4.17 µM | M19-MEL 4.67 µM | HCC 2998 3.85 µM | Malme-3M 4.89 µM | MOLT-4 3.4 µM | A498 5.02 µM | EKVX 9.79 µM | SK-MEL-5 4.7 µM | U-251 4.16 µM | SNB-75 7.59 µM | UACC-257 5.21 µM | SK-MEL-2 4.63 µM | K562 3.88 µM | RXF 393 3.82 µM | HOP-62 10.6 µM | LOX IMVI 3.82 µM | SK-MEL-28 4.8 µM | KM12 5.51 µM | SK-OV-3 5.98 µM | IGROV-1 11.1 µM | SNB-78 7.6 µM | NCI-H460 4.09 µM | XF498 4.69 µM | SF-539 5.07 µM | NCI-H226 4.5 µM | NCI-H522 5.06 µM | MCF7 5.19 µM | A549 8.51 µM | SN12C 7.73 µM | SW-620 4.59 µM | HT-29 4.42 µM | DMS-273 4.16 µM | UACC-62 5.28 µM
active: HOP-18 0.791 µM
